Data published in patent EP0035868A1, “Bicyclic compounds, their production and use” (Takeda Chemical Industries, Ltd., priority 1980, dated 1981).

Columns and labels:
[1] = target: T1, ACE (angiotensin I converting enzyme) (Oryctolagus cuniculus, UniProt P12822); assay: Inhibition of angiotensin I converting enzyme (HHL substrate, modified Cushman method); assay type: biochemical; settings: 37°C, one hour, read-out: Inhibitory Activity on ACE (%); for inhibition at 1 µM: Concentration 1 μM; for inhibition at 10 µM: Concentration 10 μM
T1 sequence (P12822 34-1310): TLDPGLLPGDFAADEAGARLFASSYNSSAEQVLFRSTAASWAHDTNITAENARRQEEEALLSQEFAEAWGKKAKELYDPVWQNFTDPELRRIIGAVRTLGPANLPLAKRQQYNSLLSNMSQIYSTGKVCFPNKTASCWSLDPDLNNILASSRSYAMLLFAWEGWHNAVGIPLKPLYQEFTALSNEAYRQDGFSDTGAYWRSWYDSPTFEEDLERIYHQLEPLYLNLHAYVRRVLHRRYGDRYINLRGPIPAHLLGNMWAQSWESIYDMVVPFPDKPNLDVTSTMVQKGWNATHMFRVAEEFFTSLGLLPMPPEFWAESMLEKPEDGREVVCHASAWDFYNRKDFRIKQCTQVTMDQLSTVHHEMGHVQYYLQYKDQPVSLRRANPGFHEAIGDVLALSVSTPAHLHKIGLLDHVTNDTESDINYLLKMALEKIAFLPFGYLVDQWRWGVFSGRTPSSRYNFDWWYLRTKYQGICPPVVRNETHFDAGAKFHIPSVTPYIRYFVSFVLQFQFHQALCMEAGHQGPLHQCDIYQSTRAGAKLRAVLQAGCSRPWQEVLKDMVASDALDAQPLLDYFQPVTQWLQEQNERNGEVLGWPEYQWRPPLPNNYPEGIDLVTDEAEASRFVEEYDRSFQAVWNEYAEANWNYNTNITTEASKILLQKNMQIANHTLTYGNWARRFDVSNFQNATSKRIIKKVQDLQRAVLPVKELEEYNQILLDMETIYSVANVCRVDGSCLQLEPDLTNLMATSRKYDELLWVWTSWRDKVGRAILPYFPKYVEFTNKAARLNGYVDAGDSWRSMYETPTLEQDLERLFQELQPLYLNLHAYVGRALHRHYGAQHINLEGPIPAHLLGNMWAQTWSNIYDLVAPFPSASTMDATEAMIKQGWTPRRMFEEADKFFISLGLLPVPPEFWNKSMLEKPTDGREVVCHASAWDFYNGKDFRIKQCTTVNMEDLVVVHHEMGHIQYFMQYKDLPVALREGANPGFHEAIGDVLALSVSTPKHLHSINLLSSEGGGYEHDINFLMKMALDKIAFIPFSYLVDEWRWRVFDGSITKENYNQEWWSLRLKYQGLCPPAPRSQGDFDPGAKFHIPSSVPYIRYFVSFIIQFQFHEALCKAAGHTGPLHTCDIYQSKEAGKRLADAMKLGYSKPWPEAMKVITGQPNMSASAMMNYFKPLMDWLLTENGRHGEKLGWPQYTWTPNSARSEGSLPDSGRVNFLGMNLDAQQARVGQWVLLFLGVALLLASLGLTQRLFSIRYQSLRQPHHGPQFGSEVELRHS
Experimental: The experiment was conducted in accordance with a modification of the method described by Cushman et al. [Biochemical Pharmacology, Vol. 20, pl637(1971)].
That is, using hippuryl-L-histidyl-L-leucine(HHL) as the substrate, the ACE (angiotensin I converting enzyme) inhibitory activity was determined in terms of percent inhibition on the amount of hippuric acid produced by ACE when the present compound was added. A solution of the compound of the present invention dissolved in a 0.02 to 2% dimethyl sulfoxide-500 mM potassium phosphate buffer solution (pH 8.3, containing 300 mM sodium chloride) was added to 100 µl of ACE (protein concentration, 20 mg/ml) and 100 µl of 1.25 mM HHL. In this experiment, a potassium phosphate buffer solution containing dimethyl sulfoxide at a concentration equal to that of the test solution was used as a control. After incubating the solution at 37°C for one hour, 150 µl of 1N hydrochloric acid was added to the solution to terminate the reaction. After 1 ml of ethyl acetate was added, the solution was centrifuged at 3000 r.p.m. for 10 minutes. A 0.5 ml aliquot was separated from the ethyl acetate layer and dried at a temperature below 50°C under nitrogen gas streams. The residue was mixed with 5 ml of 1M aqueous sodium chloride and the mixture was subjected to colorimetry at a wavelength of 228 nm.

[2] = test system: Hypertensive Activity of Angiotensin I; assay: Effect against hypertensive activity of angiotensin I in rats, oral administration; assay type: in vivo, Male rats (Sprague-Dawley); settings: 13.8 µM/kg orally, angiotensin I 300 ng/kg i.v., corrected by angiotensin II reaction
Experimental: Male rats (Sprague-Dawley) weighing 250 g to 350 g which were fed under free access to drinking water and feeds were used as experimental animals. The rats were anesthetized with intraperitoneal administration of pentobarbital sodium (50 mg/kg) on the day before the test day and a polyethylene tube was inserted into each of the femoral artery for measurement of blood pressure and the femoral vein for injection of angiotensin I and II, and then the tubes were fixed.
On the test day, an average blood pressure in the control phase was recorded on an electric hemodynamometer (MP-4T model manufactured by Nippon Koden, Japan) and thereafter angiotensin I and then angiotensin II were injected through the femoral vein at a dose of 300 ng/kg and 100 ng/kg respectively, to measure the hypertensive activity. Then, 13.8 µM/kg of the compound of this invention was administered orally as an aqueous solution or an aqueous gum arabic suspension, and 20, 60 and 120 minutes after the administration, angiotensin I and II were injected repeatedly to trace hypertensive reactions. In calculating the percent inhibition to the hypertensive acitivity of angiotensin I, the-percent inhibitory value was corrected based on the variation with time in the hypertensive reaction by angiotensin II.

SMILES	inhibition at 1 µM [1] [%]	inhibition at 10 µM [1] [%]	Percent Inhibition (%) against Hypertensive Reaction by Angiotensin I ([2]; After 20 min.) [%]	Percent Inhibition (%) against Hypertensive Reaction by Angiotensin I ([2]; After 60 min.) [%]	Percent Inhibition (%) against Hypertensive Reaction by Angiotensin I ([2]; After 120 min.) [%]
CC(=O)SCCC(=O)N(CC(=O)O)C1Cc2ccccc2C1 [Example 40, N-(3-acetylthiopropionyl)-N-(2-indanyl) glycine]	77	92	–	–	–
COc1ccc2c(c1OC)CCCC2N(CC(=O)O)C(=O)C(C)CSC(C)=O (centres unmarked) [Example 18]	–	–	83	70	72
CC(=O)SCC(C)C(=O)N(CC(=O)O)C1CCc2cc3c(cc21)OCO3 (centres unmarked) [Example 9, N-(3-acetylthio-2-methylpropionyl)-N-(5,6-methylenedioxy-I-indanyl)glycine]	–	–	81	78	59
COc1cc2c(cc1OC)C(N(CC(=O)O)C(=O)C(C)CSC(C)=O)CC2 (centres unmarked) [Example 8, N-(3-Acetylthio-2-methylpropionyl)-N-(5,6-dimethoxy-1-indanyl)glycine]	–	–	86	94	91
COc1ccc2c(c1)C(N(CC(=O)O)C(=O)C(C)CSC(C)=O)CC2 (stereo not drawn) [Example 1, N-(3-acetylthio-2-methylpropionyl)-N-(6-methoxy-l-indanyl)-glycine]	–	–	96	94	91
COc1cc2c(cc1OC)C(N(CC(=O)O)C(=O)C(C)CS)CC2 (stereo not drawn) [Example 45, N-(3-mercapto-2-methylpropionyl)-N-(5,6-dimethoxy-l-indanyl)glycine]	74	99	–	–	–
COc1cc2c(cc1OC)CC(N(CC(=O)O)C(=O)C(C)CSC(C)=O)C2 (centres unmarked) [Example 41, N-(3-acetylthio-2-methylpropionyl)-N-(5,6-dimethoxy-2-indanyl)glycine]	–	–	89	93	92
CC(=O)SCC(C)C(=O)N(CC(=O)O)C1CCc2ccccc21 (centres unmarked) [Example 3]	–	–	95	90	83
CC(=O)SCC(C)C(=O)N(CC(=O)O)C1Cc2ccccc2C1 (centres unmarked) [Example 35, N-(3-acetylthio-2-methylpropionyl)-N-(2-indanyl)glycine]	–	–	100	100	91

More lines, main results first:

inhibition at 1 µM [1] [%]	inhibition at 10 µM [1] [%]	SMILES	Percent Inhibition (%) against Hypertensive Reaction by Angiotensin I ([2]; After 20 min.) [%]	Percent Inhibition (%) against Hypertensive Reaction by Angiotensin I ([2]; After 60 min.) [%]	Percent Inhibition (%) against Hypertensive Reaction by Angiotensin I ([2]; After 120 min.) [%]
86	98	C[C@H](CSC(=O)c1ccccc1)C(=O)N(CC(=O)O)C1Cc2ccccc2C1 [Example 38, N-(3-benzoylthio-2(S)-methylpropionyl)-N-(2-indanyl)glycine]	–	–	–
19	66	CC(=O)SCC(C)C(=O)N(CC(=O)O)C1CCOc2ccc(Cl)cc21 (centres unmarked) [Example 21]	–	–	–
73	95	CC(=O)SCC(C)C(=O)N(CC(=O)O)C1CCc2ccccc2C1 (centres unmarked) [Example 32, N-(3-acetylthio-2-methylpropionyl)-N-(1,2,3,4-tetrahydro-2-naphthyl)glycine]	–	–	–
32	75	COc1cc2c(cc1OC)C(N(CC(=O)O)C(=O)C(CSC(C)=O)CSC(C)=O)CC2 (centres unmarked) [Example 43, N-(3-acetylthio-2-acetylthiomethylpropionyl)-N-(5,6-dimethoxy-1-indanyl)glycine]	–	–	–
45	88	CC(=O)SCC(C)C(=O)N(CC(=O)O)C1CCc2cc(O)ccc21 (centres unmarked) [Example 6]	–	–	–
